Results: ChEMBL document CHEMBL6087482, “Discovery of INCB159020, an Orally Bioavailable KRAS G12D Inhibitor” (J Med Chem, 2025)

Legend:
GTPase KRas [1] = target: GTPase KRas (Homo sapiens, UniProt P01116); test: Binding affinity to KRAS (unknown origin) assessed as dissociation constant by SPR analysis
GTPase KRas [2] = target: GTPase KRas (Homo sapiens, UniProt P01116, G12D); test: Inhibition of bodipy-loaded KRAS G12D mutant (unknown origin) assessed as GDP-GTP exchange preincubated for 4 hrs followed by GppNHp and SOS1 addition and measured after 2 hrs by fluorescence based plate reader analysis
[3] = Inhibition of ERK phosphorylation in KRAS G12D mutant dependent human HPAF-II cells incubated for 2 hrs by HTRF assay; assay type: cell-based
[4] = Inhibition of ERK phosphorylation in KRAS G12D mutant dependent human HPAF-II cells incubated for 2 hrs with human whole blood containing compound by HTRF assay; assay type: cell-based
[5] = Apparent permeability across apical to basolateral side in human Caco-2 cells at 50 uM incubated for 120 mins by LC-MS analysis; assay type: ADME, cell-based
[6] = Intrinsic clearance in human liver microsomes at 1 uM measured upto 30 mins in presence of NADPH by LC/MS analysis; assay type: ADME, Microsome; details: read-out: CLH (converted)
[7] = Half-life in Non human primate at 2.0 mg/kg, po or 0.5 mg/kg, iv; assay type: ADME, organism-based; details: primates, in vivo
[8] = Oral bioavailability in Non human primate at 2.0 mg/kg; assay type: ADME, organism-based; details: primates, in vivo
Primates [9] = test: Clearance in Non human primate assessed as hepatic blood flow at 2.0 mg/kg, po or 0.5 mg/kg, iv; assay type: ADME, organism-based; details: in vivo
[10] = Clearance in Sprague-Dawley rat assessed as hepatic blood flow at 3 mg/kg, po or 1 mg/kg, iv measured after 24 hrs by LC-MS/MS analysis; assay type: ADME, organism-based; details: in vivo
[11] = AUC in Sprague-Dawley rat at 3 mg/kg, po or 1 mg/kg, iv measured after 24 hrs by LC-MS/MS analysis; assay type: ADME, organism-based; details: in vivo
[12] = Oral bioavailability in Sprague-Dawley rat at 3 mg/kg measured after 24 hrs by LC-MS/MS analysis; assay type: ADME, organism-based; details: in vivo
[13] = Cmax in Non human primate at 2.0 mg/kg, po or 0.5 mg/kg, iv; assay type: ADME, organism-based; details: primates, in vivo
Primates [14] = test: Clearance in Non human primate at 2.0 mg/kg, po or 0.5 mg/kg, iv; assay type: ADME, organism-based; details: in vivo
[15] = Cmax in Sprague-Dawley rat at 3 mg/kg, po or 1 mg/kg, iv measured after 24 hrs by LC-MS/MS analysis; assay type: ADME, organism-based; details: in vivo
[16] = Half-life in Sprague-Dawley rat at 3 mg/kg, po or 1 mg/kg, iv measured after 24 hrs by LC-MS/MS analysis; assay type: ADME, organism-based; details: in vivo
Primates [17] = test: AUC in Non human primate at 2.0 mg/kg, po or 0.5 mg/kg, iv; assay type: ADME, organism-based; details: in vivo
[18] = AUC in Non human primate at 2.0 mg/kg, po or 1 mg/kg, iv; assay type: ADME, organism-based; details: primates, in vivo
Primates [19] = test: Clearance in Non human primate assessed as hepatic blood flow at 2.0 mg/kg, po or 1 mg/kg, iv; assay type: ADME, organism-based; details: in vivo
[20] = Cmax in Non human primate at 2.0 mg/kg, po or 1 mg/kg, iv; assay type: ADME, organism-based; details: primates, in vivo
[21] = Cmax in Sprague-Dawley rat at 3 mg/kg, po or 0.1 mg/kg, iv measured after 24 hrs by LC-MS/MS analysis; assay type: ADME, organism-based; details: in vivo
[22] = Clearance in Sprague-Dawley rat assessed as hepatic blood flow at 3 mg/kg, po or 0.1 mg/kg, iv measured after 24 hrs by LC-MS/MS analysis; assay type: ADME, organism-based; details: in vivo
[23] = Half-life in Sprague-Dawley rat at 3 mg/kg, po or 0.1 mg/kg, iv measured after 24 hrs by LC-MS/MS analysis; assay type: ADME, organism-based; details: in vivo
[24] = Half-life in Non human primate at 2.0 mg/kg, po or 1 mg/kg, iv; assay type: ADME, organism-based; details: primates, in vivo
[25] = AUC in Sprague-Dawley rat at 3 mg/kg, po or 0.1 mg/kg, iv measured after 24 hrs by LC-MS/MS analysis; assay type: ADME, organism-based; details: in vivo
[26] = In vivo inhibition of ERK phosphorylation in tumor of mouse xenografted with HPAC cells at 6 mg/kg, po measured after 4 hrs relative to control; assay type: functional

Sequence of GTPase KRas (Homo sapiens, UniProt P01116) (P01116 whole entry): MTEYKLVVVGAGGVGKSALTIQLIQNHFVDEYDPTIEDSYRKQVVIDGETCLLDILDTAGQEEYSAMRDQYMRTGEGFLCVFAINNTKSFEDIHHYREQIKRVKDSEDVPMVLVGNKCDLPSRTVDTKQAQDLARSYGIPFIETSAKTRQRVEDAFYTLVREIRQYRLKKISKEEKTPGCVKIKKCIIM

SMILES	Kd (GTPase KRas [1]) [nM]	IC50 (GTPase KRas [2]) [nM]	IC50 [3] [nM]	IC50 [4] [nM]	Papp A→B at 2 h, 50 µM [5] [×10⁻⁶ cm/s]	hepatic clearance at 1 µM [6] [mL/min/kg]	also measured
CN(C)C(=O)CCc1nc2c(N3CC(N(C)C)C3)nc3c(F)c(-c4cc(O)cc5ccccc45)c(CCC#N)cc3c2n1[C@H]1[C@H]2CN[C@@H]1C2	0.02	2.9	127	977	–	–	–
Cc1nc2c(F)c(-c3cccc4ccc(F)cc34)c(CCC#N)cc2c2c1cc(CN1CCOCC1=O)n2[C@H]1[C@H]2CN[C@@H]1C2	–	2.7	7.2	677	0.7	> 18.3	–
CN(C)C(=O)CCc1nc2c(N3CC(C)(N(C)C)C3)nc3c(F)c(-c4cc(O)cc5ccccc45)c(CCC#N)cc3c2n1[C@H]1[C@H]2CN[C@@H]1C2	0.031	2.9	92	1240	–	–	–
CCOc1nc2c(F)c(-c3cc(O)cc4ccccc34)c(CCC#N)cc2c2c1cc(CN1CCCCC1=O)n2[C@H]1[C@H]2CN[C@@H]1C2	0.05	2.6	21	2350	0.2	> 18.3	–
Cc1cc(-c2nc3c(F)c(-c4cccc5ccc(F)cc45)c(CCC#N)cc3c3c2cc(CN2CCOCC2=O)n3[C@H]2[C@H]3CN[C@@H]2C3)ccn1	1.2	6.9	36	565	1.6	16.7	half-life [7]: 8.4 h; bioavailability [8]: 0%; QH (Primates [9]): 37%; QH [10]: > 100%; AUC at 24 h [11]: 0.108 µM·h; bioavailability [12]: 11%; Cmax [13]: 2.5 nM; CL (Primates [14]): 16.2 mL/min/kg; Cmax [15]: 41.5 nM; half-life [16]: 3.5 h; AUC (Primates [17]): Below_limit_of_detection
CCOc1nc2c(F)c(-c3cccc4ccc(F)cc34)c(CCC#N)cc2c2c1cc(CCC(=O)N(C)C)n2[C@H]1[C@H]2CN[C@@H]1C2	–	391	–	–	–	11.7	–
CN(C)C1CN(c2nc3c(F)c(-c4cc(O)cc5ccccc45)c(Cl)cc3c3c2ncn3[C@H]2[C@H]3CN[C@@H]2C3)C1	–	671	–	–	–	–	–
Cc1cc(-c2nc3c(F)c(-c4cccc5ccc(F)cc45)c(CCC#N)cc3c3c2cc([C@@H](C)N2CCOCC2=O)n3[C@H]2[C@H]3CN[C@@H]2C3)ccn1	0.94	2.1	7.5	103	0.6	> 18.3	–
Cc1cnc(-c2nc3c(F)c(-c4cccc5ccc(F)cc45)c(CCC#N)cc3c3c2cc([C@@H](C)N2CCOCC2=O)n3[C@H]2[C@H]3CN[C@@H]2C3)cn1	1.5	2.8	6.8	55	1.4	> 18.3	bioavailability [8]: 2%; AUC [18]: 0.068 µM·h; QH (Primates [19]): 39%; Cmax [20]: 7.2 nM; Cmax [21]: 24 nM; bioavailability [12]: 20%; QH [22]: > 100%; half-life [23]: 2.5 h; half-life [24]: 4.9 h; AUC at 24 h [25]: 0.085 µM·h
CC(Oc1nc2c(F)c(-c3cc(O)cc4ccccc34)c(CCC#N)cc2c2c1cc(CCC(=O)N(C)C)n2[C@H]1[C@H]2CN[C@@H]1C2)C1CCCN1C (single isomer, unassigned)	0.1	3.6	54	2620	–	–	–
CC(Oc1nc2c(F)c(-c3cc(O)cc4ccccc34)c(CCC#N)cc2c2c1nc(CCC(=O)N(C)C)n2[C@H]1[C@H]2CN[C@@H]1C2)C1CCCN1C (single isomer, unassigned)	–	15	1240	–	–	–	–
CC(=O)Nc1cccc(-n2c(=O)n(C3CC3)c(=O)c3c(Nc4ccc(I)cc4F)n(C)c(=O)c(C)c32)c1 [TRAMETINIB]	–	–	–	–	–	–	inhibition in vivo at 6 mg/kg [26]: 99%
